{"source": "patent US20200339691A1", "about": "“PROTEINACEOUS MOLECULES AND USES THEREFOR” (priority 2018, published 2020)", "key": {"PD-L1 [1]": {"system": "PD-L1", "experiment": "PD-L1 in MDA-MB-231 mouse xenografts treated with abraxane or docetaxel", "assay_type": "in vivo", "details": "35 days, compared with untreated cells", "method": "The expression of PD-L1 in mouse MDA-MB-231 xenografts treated for 35 days with abraxane (60 mg/kg) or docetaxel (10 mg/kg) was investigated using confocal laser scanning microscopy.\nFive-week-old female nude mice were acquired and allowed to acclimatize for one week in the animal facility before experimentation. All experimental procedures were accessed and approved by The Australian National University Animal Experimental Ethics Committee (Ethics ID A2014/30). MDA-MB-231 human breast carcinoma cells were injected subcutaneously into the right mammary gland (2×10^6 cells in 1:1 PBS and BD Matrigel Matrix). Tumors were measured using external calipers and calculated using the modified ellipsoidal formula: […], where a=longest diameter and b=shortest diameter. Tumors were allowed to grow to around 50 mm^3 before commencing treatments (around 15 days). Abraxane (60 mg/kg) or Docetaxel (10 mg/kg) were administered by i.p. injection. Tumors were excised and collected in DMEM supplemented with 2.5% FCS. […] Digested tumors were spun and resuspended in DMEM, 2.5% FCS before being passed through a […] filter and PD-L1 nuclear localization was assessed using immunofluorescence microscopy as described supra."}, "[2]": {"system": "CD44^hiCD24^lo CSCs in MDA-MB-231 cells", "experiment": "FACS analysis of CD44^hiCD24^lo cancer stem cells in MDA-MB-231 cells treated with P1 analogues", "assay_type": "cell-based, human", "details": "50 μM peptide, 48 hours; for CD44^hiCD24^lo CSCs (%) / COI, Live Single CD44^hiCD24^lo CSCs (Cell Count): n = 1", "method": "Analogues of P1 (Table 6) were designed and synthesized in accordance with the procedure of Example 5. The ability of these analogues to inhibit cancer stem cells was determined using FACS analysis on MDA-MB-231 cells, which constitutively contain approximately 90% CD44^hiCD24^lo cancer stem cells, treated with the peptides.\n(§1) Non-adherent cells were removed during the washing steps."}, "MDA-MB-231 cells": {"system": "MDA-MB-231 cells", "assay_type": "cell-based, human", "from_the_text": "as §1"}, "PD-L1 [3]": {"system": "PD-L1", "experiment": "Immunofluorescence (confocal) of PD-L1 in MDA-MB-231 cells, Example 6", "assay_type": "cell-based, human", "details": "50 μM, 72 hours", "method": "(§2) Confocal laser scanning microscopy was employed to investigate the effect of P1, P2 and P3 (synthesized in accordance with Example 5) on the nuclear expression of PD-L1 and acetylated PD-L1 (PDL1-Ac) (FIG. 9).\n(§3) 1×10^4 MDA-MB-231 cells were seeded onto coverslips in 12 well plates with DMEM media overnight. Cells were treated with 50 μM P1, P2, P3 or P4 or vehicle (water) for 72 hours. Treated cells were fixed with 3.7% formaldehyde, and then permeabilised by incubating with 1% Triton X-100 for 20 min. Cells were then probed with a rabbit anti-PD-L1 antibody (Santa Cruz Biotechnology) or rabbit anti-acetylated PD-L1 (generated as described above) and visualized with a donkey anti-rabbit AF 488. Cover slips were mounted on glass microscope slides with ProLong Diamond Antifade reagent (Life Technologies). Protein targets were localized using confocal laser scanning microscopy. Single 0.5 μm sections were obtained using a Leica DMI8 microscope using 100× oil immersion lens running LAX software. The final image was obtained by averaging four sequential images of the same section. Digital images were analyzed using ImageJ software as described above."}, "[4]": {"system": "PD-L1 acetylated at lysine 263", "experiment": "Immunofluorescence (confocal) of acetylated PD-L1 in MDA-MB-231 cells, Example 6", "assay_type": "cell-based, human", "details": "50 μM, 72 hours", "method": "as §2, §3"}, "EHTM2": {"system": "EHTM2", "experiment": "Immunofluorescence of EHTM2 in MDA-MB-231 cells", "assay_type": "cell-based, human", "details": "50 μM, 72 hours", "method": "(§4) Cells were treated with 50 μM P1, P2, P3 or P4 (synthesized in accordance with Example 5) or vehicle (water) for 72 hours. […] Confocal laser scanning microscopy was used to measure the […] and TCFI as described above. At least 20 individual cells were analyzed per sample."}, "DMNTI": {"system": "DMNTI", "experiment": "Immunofluorescence of DMNTI in MDA-MB-231 cells", "assay_type": "cell-based, human", "details": "50 μM, 72 hours", "method": "as §4"}, "SETDB1": {"system": "SETDB1", "experiment": "Immunofluorescence of SETDB1 in MDA-MB-231 cells", "assay_type": "cell-based, human", "details": "50 μM, 72 hours", "method": "as §4"}, "p300": {"molecular_target": "T1, p300 (Homo sapiens, UniProt Q09472)", "T1 construct": "endogenous in cells; host or cells: MDA-MB-231", "T1 sequence (Q09472 whole entry)": "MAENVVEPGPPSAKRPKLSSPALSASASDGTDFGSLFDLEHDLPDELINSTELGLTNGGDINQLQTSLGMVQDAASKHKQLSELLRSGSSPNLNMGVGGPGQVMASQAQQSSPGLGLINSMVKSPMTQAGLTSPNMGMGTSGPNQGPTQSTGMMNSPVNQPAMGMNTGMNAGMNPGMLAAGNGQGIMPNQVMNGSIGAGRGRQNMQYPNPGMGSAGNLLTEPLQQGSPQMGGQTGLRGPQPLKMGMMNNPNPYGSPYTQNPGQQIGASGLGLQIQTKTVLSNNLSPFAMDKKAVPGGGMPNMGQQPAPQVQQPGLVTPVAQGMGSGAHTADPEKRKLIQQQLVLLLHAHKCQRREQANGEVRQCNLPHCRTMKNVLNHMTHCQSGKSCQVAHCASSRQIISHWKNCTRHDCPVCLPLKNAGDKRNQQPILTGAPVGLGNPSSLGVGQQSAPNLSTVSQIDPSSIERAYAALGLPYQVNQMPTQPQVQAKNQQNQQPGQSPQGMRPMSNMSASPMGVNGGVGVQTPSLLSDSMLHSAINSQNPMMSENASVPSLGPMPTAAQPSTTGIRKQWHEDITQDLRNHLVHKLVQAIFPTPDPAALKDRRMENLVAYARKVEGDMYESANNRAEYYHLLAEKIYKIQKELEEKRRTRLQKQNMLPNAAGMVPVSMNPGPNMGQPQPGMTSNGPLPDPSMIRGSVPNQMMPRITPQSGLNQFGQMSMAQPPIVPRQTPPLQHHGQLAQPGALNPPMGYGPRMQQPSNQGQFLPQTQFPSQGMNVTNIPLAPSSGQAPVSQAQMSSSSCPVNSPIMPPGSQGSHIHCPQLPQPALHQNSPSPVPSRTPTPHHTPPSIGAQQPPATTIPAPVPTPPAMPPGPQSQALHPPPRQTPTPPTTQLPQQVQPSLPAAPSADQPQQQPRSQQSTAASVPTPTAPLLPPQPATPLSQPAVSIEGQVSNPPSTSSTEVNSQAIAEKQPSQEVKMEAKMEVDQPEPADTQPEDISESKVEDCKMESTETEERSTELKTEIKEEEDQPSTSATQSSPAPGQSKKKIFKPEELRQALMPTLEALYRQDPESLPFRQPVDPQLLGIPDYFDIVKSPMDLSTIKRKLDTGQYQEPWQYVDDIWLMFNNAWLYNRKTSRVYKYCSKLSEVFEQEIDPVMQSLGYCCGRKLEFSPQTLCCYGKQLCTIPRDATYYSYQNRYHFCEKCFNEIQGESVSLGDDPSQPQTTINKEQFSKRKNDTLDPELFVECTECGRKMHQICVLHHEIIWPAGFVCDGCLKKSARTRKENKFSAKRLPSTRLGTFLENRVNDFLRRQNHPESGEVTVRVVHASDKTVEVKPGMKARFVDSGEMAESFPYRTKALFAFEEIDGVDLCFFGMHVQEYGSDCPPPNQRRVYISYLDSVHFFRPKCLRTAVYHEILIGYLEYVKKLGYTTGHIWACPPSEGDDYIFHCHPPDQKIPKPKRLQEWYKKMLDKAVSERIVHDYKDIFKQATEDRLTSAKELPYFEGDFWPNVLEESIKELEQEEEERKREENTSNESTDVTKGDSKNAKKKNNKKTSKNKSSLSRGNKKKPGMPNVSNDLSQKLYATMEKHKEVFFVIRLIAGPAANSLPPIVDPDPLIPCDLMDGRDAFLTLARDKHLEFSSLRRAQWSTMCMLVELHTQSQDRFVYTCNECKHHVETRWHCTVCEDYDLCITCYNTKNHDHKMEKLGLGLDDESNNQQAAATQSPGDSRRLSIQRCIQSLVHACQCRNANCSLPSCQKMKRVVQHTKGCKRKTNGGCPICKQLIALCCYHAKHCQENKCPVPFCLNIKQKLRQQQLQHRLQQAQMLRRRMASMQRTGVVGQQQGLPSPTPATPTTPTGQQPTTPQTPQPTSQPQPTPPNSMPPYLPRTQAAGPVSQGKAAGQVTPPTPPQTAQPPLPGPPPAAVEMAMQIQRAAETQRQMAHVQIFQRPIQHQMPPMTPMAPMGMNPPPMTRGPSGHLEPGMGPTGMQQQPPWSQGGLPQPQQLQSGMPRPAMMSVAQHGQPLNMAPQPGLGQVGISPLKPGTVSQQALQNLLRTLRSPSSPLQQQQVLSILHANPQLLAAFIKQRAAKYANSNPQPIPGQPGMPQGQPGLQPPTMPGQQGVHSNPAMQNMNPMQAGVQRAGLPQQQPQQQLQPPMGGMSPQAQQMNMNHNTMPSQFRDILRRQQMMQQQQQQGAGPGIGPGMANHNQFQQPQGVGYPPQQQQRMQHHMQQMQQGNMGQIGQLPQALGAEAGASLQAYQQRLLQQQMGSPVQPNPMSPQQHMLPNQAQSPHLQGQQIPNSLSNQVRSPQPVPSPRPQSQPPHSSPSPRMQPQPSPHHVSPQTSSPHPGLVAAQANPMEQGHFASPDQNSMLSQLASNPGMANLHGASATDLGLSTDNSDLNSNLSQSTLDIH", "experiment": "Immunofluorescence of p300 localization in MDA-MB-231 cells", "assay_type": "cell-based", "details": "50 μM", "method": "(§5) The effect of P1, P2, P3 and P4 (synthesized in accordance with Example 5) on p300 localization was examined using confocal laser scanning microscopy. […] Cover slips were mounted on glass microscope slides with ProLong Diamond Antifade reagent (Life Technologies). Protein targets were localized by confocal laser scanning microscopy as described above. TNFI and PCC(r) were calculated using ImageJ software as previously described."}, "[5]": {"system": "acetylated PD-L1 and p300", "experiment": "Colocalization (PCC(r)) of acetylated PD-L1 and p300 in MDA-MB-231 cells", "assay_type": "cell-based, human", "details": "50 μm", "method": "as §5"}, "[6]": {"system": "CD44^hiCD24^lo CSCs in MCF7 cells", "experiment": "FACS analysis of CD44^hiCD24^lo CSCs in MCF7 cells", "assay_type": "cell-based, human", "details": "50 μM peptide, 48 hours", "method": "(§6) P1 Analogues were synthesized in accordance with the procedure of Example 5. 4×10^4 MDA-MB-231 cells or 1×10^4 induced or non-induced MCF7 cells were seeded in a 12 well plate with 1 mL complete media overnight. Induced MCF7 cells were prepared by stimulating cells with PMA/TGF-β and incubating for 12 hours. Cells were treated with 50 μM test peptide (dissolved in water) for 48 hours. Cells were then washed twice with 1 mL PBS and harvested by trypsinisation. Non-adherent cells were removed during the washing steps. Adherent cells were collected, and were subsequently stained with anti-human CD44, CD24 and Hoechst 33342 antibodies on ice for 30 mins. FACS was performed on BD FACS LSRII to measure the percentage of CD44^hiCD24^lo CSCs by dividing CD44^hiCD24^lo events by total live cell counts (Hoechst negative population) (as described in Fillmore and Kuperwasser (2007) Breast Cancer Res, 9: 303). The percentage of viable cells was calculated by dividing total live cell events by total single cells as described previously (Siemann and Keng (1986), Cancer Res, 46: 3556-3559)."}, "MCF7 cells": {"system": "MCF7 cells", "method": "as §6"}, "induced MCF7 cells": {"system": "induced MCF7 cells", "experiment": "FACS CSC inhibition in induced MCF7 cells", "assay_type": "cell-based, human", "details": "induced MCF7 cells (PMA/TGF-β), 50 μM peptide, 48 hours", "method": "as §6"}, "[7]": {"details": "MCF7 cells, 50 μM peptide, 48 hours"}}, "note": "Where a SMILES comes first, the peptide text is derived from it. The star is where a group is joined. Myristoyl = CCCCCCCCCCCCCC(=O)*;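 on COI, Live Single Cells (Cell Count): live means Hoechst-negative events among single cells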"}
{"compound": "CC(=O)O[C@@]12CO[C@@H]1C[C@H](O)[C@@]1(C)C(=O)[C@H](O)C3=C(C)[C@@H](OC(=O)[C@H](O)[C@@H](NC(=O)OC(C)(C)C)c4ccccc4)C[C@@](O)([C@@H](OC(=O)c4ccccc4)[C@H]21)C3(C)C", "note": "[docetaxel]", "values": [{"measurement": "PD-L1 in the nucleus of surviving, resistant xenograft cells", "setting": "PD-L1 [1]", "value": "higher levels of PD-L1 in the nucleus"}]}
{"compound": "CCCCCCCCCCCCCC(=O)N[C@@H](Cc1ccccc1)C(=O)N[C@@H](CCCNC(=N)N)C(=O)N[C@@H](CC(C)C)C(=O)N[C@@H](CCCNC(=N)N)C(=O)N[C@@H](CCCCN)C(=O)NCC(=O)N[C@@H](CCCNC(=N)N)C(=O)N[C@@H](CCSC)C(=O)N[C@@H](CCSC)C(=O)N[C@@H](CC(=O)O)C(=O)N[C@H](C(=O)N[C@@H](CCCCN)C(=O)N[C@@H](CCCCN)C(N)=O)C(C)C", "note": "[Peptide P4, Myristoyl-FRLRKGRMMDVKK-NH2] (Myristoyl-FRLRKGRMMDVKK-NH2)", "values": [{"measurement": "CD44^hiCD24^lo CSCs (%)", "setting": "[2]", "value": 87.66, "unit": "%"}, {"measurement": "COI, Live Single CD44^hiCD24^lo CSCs (Cell Count)", "setting": "[2]", "value": 3311}, {"measurement": "COI (Cell Count)", "setting": "MDA-MB-231 cells; 50 μM peptide, 48 hours, n = 1", "value": 4910}, {"measurement": "COI, Live Single Cells (Cell Count)", "setting": "MDA-MB-231 cells; 50 μM peptide, 48 hours, n = 1", "value": 3777}, {"measurement": "COI, Single (Cell Count)", "setting": "MDA-MB-231 cells; 50 μM peptide, 48 hours, n = 1", "value": 3903}, {"measurement": "Total Cell Count", "setting": "MDA-MB-231 cells; 50 μM peptide, 48 hours, n = 1", "value": 7923}, {"measurement": "localization of PD-L1", "setting": "PD-L1 [3]", "value": "no effect"}, {"measurement": "localization of acetylated PD-L1", "setting": "[4]", "value": "no effect"}, {"measurement": "expression / localization of EHTM2", "setting": "EHTM2", "value": "did not have a significant effect"}, {"measurement": "expression / nuclear localization of DMNTI", "setting": "DMNTI", "value": "inhibited"}, {"measurement": "expression / nuclear localization of SETDB1", "setting": "SETDB1", "value": "inhibited"}, {"measurement": "p300 nuclear expression", "setting": "p300", "value": "slightly decreased"}, {"measurement": "colocalization of acetylated PD-L1 and p300", "setting": "[5]", "value": "no effect"}]}
{"compound": "CCCCCCCCCCCCCC(=O)N[C@@H](CC(C)C)C(=O)N[C@H](C(=O)N[C@@H](Cc1ccccc1)C(=O)N[C@H](C(=O)N[C@@H](Cc1ccccc1)C(=O)N[C@@H](CCCNC(=N)N)C(=O)N[C@@H](CC(C)C)C(=O)N[C@@H](CC(C)C)C(=O)N[C@@H](CCCCN)C(=O)NCC(=O)N[C@@H](CCCNC(=N)N)C(=O)N[C@@H](CCSC)C(=O)N[C@@H](CCSC)C(=O)N[C@@H](CC(=O)O)C(=O)N[C@H](C(=O)N[C@@H](CCCCN)C(=O)N[C@@H](CCCCN)C(N)=O)C(C)C)[C@@H](C)CC)[C@@H](C)O", "note": "[Peptide 2853825, Myristoyl-LTFIFRLLKGRMMDVKK-NH2] (Myristoyl-LTFIFRLLKGRMMDVKK-NH2)", "values": [{"measurement": "Inhibition of CSCs (%) Repeat 1", "setting": "[2]", "value": 100.00, "unit": "%"}, {"measurement": "Inhibition of CSCs (%) Repeat 2", "setting": "[2]", "value": 100.00, "unit": "%"}, {"measurement": "Inhibition of CSCs (%) Repeat 3", "setting": "[2]", "value": 100.00, "unit": "%"}, {"measurement": "CD44^hiCD24^lo CSCs (%)", "setting": "[2]", "value": 0.00, "unit": "%"}, {"measurement": "COI, Live Single CD44^hiCD24^lo CSCs (Cell Count)", "setting": "[2]", "value": 0}, {"measurement": "Average Inhibition of CSCs (%)", "setting": "[2]; n = 3", "value": 100.00, "unit": "%"}, {"measurement": "CD44^hiCD24^lo CSCs (%) Repeat 1", "setting": "[2]; n = 3", "value": 0.00, "unit": "%"}, {"measurement": "CD44^hiCD24^lo CSCs (%) Repeat 2", "setting": "[2]; n = 3", "value": 0.00, "unit": "%"}, {"measurement": "CD44^hiCD24^lo CSCs (%) Repeat 3", "setting": "[2]; n = 3", "value": 0.00, "unit": "%"}, {"measurement": "COI (Cell Count)", "setting": "MDA-MB-231 cells; 50 μM peptide, 48 hours, n = 1", "value": 18}, {"measurement": "COI, Live Single Cells (Cell Count)", "setting": "MDA-MB-231 cells; 50 μM peptide, 48 hours, n = 1", "value": 0}, {"measurement": "COI, Single (Cell Count)", "setting": "MDA-MB-231 cells; 50 μM peptide, 48 hours, n = 1", "value": 15}, {"measurement": "Total Cell Count", "setting": "MDA-MB-231 cells; 50 μM peptide, 48 hours, n = 1", "value": 1583}, {"measurement": "Viable Cells (%)", "setting": "MDA-MB-231 cells; 50 μM peptide, 48 hours, n = 1", "value": 0.00, "unit": "%"}, {"measurement": "killing of total MDA-MB-231 cells", "setting": "MDA-MB-231 cells; not only the CSCs", "value": "killed the majority of the total MDA-MB-231 cells"}, {"measurement": "CD44^hiCD24^lo CSC %", "setting": "[6]", "value": 0.00, "unit": "%"}, {"measurement": "COI/Single Cells/Live/CD44^hiCD24^lo CSCs Count", "setting": "[6]", "value": 0}, {"measurement": "cytotoxicity to MCF7 cells", "setting": "MCF7 cells", "value": "cytotoxic"}, {"measurement": "% Viable Cells", "setting": "MCF7 cells; [7]", "value": 0.00, "unit": "%"}, {"measurement": "COI Count", "setting": "MCF7 cells; [7]", "value": 72}, {"measurement": "COI/Single Cell Count", "setting": "MCF7 cells; [7]", "value": 35}, {"measurement": "COI/Single Cells/Live Count", "setting": "MCF7 cells; [7]", "value": 0}, {"measurement": "Total Count", "setting": "MCF7 cells; [7]", "value": 10000}, {"measurement": "CSC inhibition (%)", "setting": "induced MCF7 cells", "value": "Cytotoxic"}]}
